Results: ChEMBL document CHEMBL3885861, “Open TG-GATES”

Species: Rattus norvegicus
Test: Open TG-GATES - Regimen: Single
Type: toxicity, organism-based, Sprague-Dawley
Design: regimen Single, gender Male, age 6 weeks
Conditions: in vivo, po, 100 mg/kg, route gavage, dose level Low; for APTT / Bas / Eos / Fbg / Hb / Ht / Lym / MCV / Mono / Neu / PT / Plat / RBC / Ret / WBC / MCH / MCHC: tissue Blood; for KIDNEY_L / KIDNEY_R / KIDNEY_TOTAL: tissue Kidney; for LIVER: tissue Liver; for ALP / ALT / AST / BUN / CRE / Ca / DBIL / GLC / IP / K / LDH / Na / PL / RALB / TBIL / TC / TG / TP / gamma-GTP: tissue Plasma

SMILES: O=C(O)c1cn(C2CC2)c2cc(N3CCNCC3)c(F)cc2c1=O [CIPROFLOXACIN]
- TERMINAL_BW (3 h): 185.5 g
- APTT (3 h): 16.8 s
- Bas (3 h): 0%
- Eos (3 h): 0.8%
- Fbg (3 h): 213 mg/dL
- Hb (3 h): 12.9 g/dL
- Ht (3 h): 38.6%
- Lym (3 h): 78.4%
- MCV (3 h): 67.5 fL
- Mono (3 h): 8.4%
- Neu (3 h): 12.8%
- PT (3 h): 12.3 s
- Plat (3 h): 104.3 x10_4/uL
- RBC (3 h): 572.8 x10_4/ul
- Ret (3 h): 10.8%
- WBC (3 h): 106 x10_2/uL
- KIDNEY_L (3 h): 0.8 g
- KIDNEY_R (3 h): 0.9 g
- KIDNEY_TOTAL (3 h): 1.7 g
- LIVER (3 h): 9.1 g
- ALP (3 h): 856.2 IU/L
- ALT (3 h): 35 IU/L
- AST (3 h): 68.6 IU/L
- BUN (3 h): 12.4 mg/dL
- CRE (3 h): 0.5 mg/dL
- Ca (3 h): 11.2 mg/dL
- DBIL (3 h): 0.018 mg/dL
- GLC (3 h): 192 mg/dL
- IP (3 h): 9.8 mg/dL
- K (3 h): 4.9 meq/L
- LDH (3 h): 81.4 IU/L
- Na (3 h): 139 meq/L
- PL (3 h): 144.4 mg/dL
- RALB (3 h): 3.7 g/dL
- TBIL (3 h): 0.4 mg/dL
- TC (3 h): 84.6 mg/dL
- TG (3 h): 45.6 mg/dL
- TP (3 h): 5.5 g/dL
- gamma-GTP (3 h): 1.4 IU/L
- TERMINAL_BW (6 h): 179.2 g
- APTT (6 h): 17.2 s
- Bas (6 h): 0%
- Eos (6 h): 0.4%
- Fbg (6 h): 216.6 mg/dL
- Hb (6 h): 13 g/dL
- Lym (6 h): 73%
- MCH (6 h): 21.4 pg
- MCHC (6 h): 33.2%
- MCV (6 h): 64.5 fL
- Mono (6 h): 6%
- PT (6 h): 12.4 s
- Plat (6 h): 102.1 x10_4/uL
- RBC (6 h): 608.4 x10_4/ul
- Ret (6 h): 10.5%
- WBC (6 h): 119.3 x10_2/uL
- KIDNEY_L (6 h): 0.9 g
- KIDNEY_R (6 h): 0.9 g
- KIDNEY_TOTAL (6 h): 1.7 g
- LIVER (6 h): 8.1 g
- ALP (6 h): 779.4 IU/L
- ALT (6 h): 33.6 IU/L
- AST (6 h): 70.4 IU/L
- BUN (6 h): 10.8 mg/dL
- CRE (6 h): 0.5 mg/dL
- Ca (6 h): 11.4 mg/dL
- DBIL (6 h): 0.05 mg/dL
- GLC (6 h): 182.4 mg/dL
- IP (6 h): 10.3 mg/dL
- K (6 h): 5.4 meq/L
- LDH (6 h): 98 IU/L
- Na (6 h): 138.8 meq/L
- PL (6 h): 128.2 mg/dL
- RALB (6 h): 3.9 g/dL
- TBIL (6 h): 0.3 mg/dL
- TC (6 h): 71.4 mg/dL
- TG (6 h): 39.8 mg/dL
- TP (6 h): 5.6 g/dL
- gamma-GTP (6 h): 1 IU/L
- TERMINAL_BW (9 h): 174.2 g
- APTT (9 h): 16.2 s
- Bas (9 h): 0%
- Eos (9 h): 1%
- Fbg (9 h): 215 mg/dL
- Hb (9 h): 13.5 g/dL
- Lym (9 h): 77.2%
- MCV (9 h): 67.9 fL
- Mono (9 h): 5.2%
- Neu (9 h): 17%
- PT (9 h): 11.5 s
- Plat (9 h): 100.5 x10_4/uL
- RBC (9 h): 605.8 x10_4/ul
- Ret (9 h): 9.9%
- WBC (9 h): 77 x10_2/uL
- KIDNEY_L (9 h): 0.9 g
- KIDNEY_R (9 h): 0.9 g
- KIDNEY_TOTAL (9 h): 1.8 g
- LIVER (9 h): 7.3 g
- ALP (9 h): 813.2 IU/L
- ALT (9 h): 33.6 IU/L
- AST (9 h): 68.8 IU/L
- BUN (9 h): 11 mg/dL
- CRE (9 h): 0.5 mg/dL
- Ca (9 h): 10.9 mg/dL
- DBIL (9 h): 0.066 mg/dL
- GLC (9 h): 190 mg/dL
- IP (9 h): 11.5 mg/dL
- K (9 h): 4.9 meq/L
- LDH (9 h): 94.2 IU/L
- Na (9 h): 139.6 meq/L
- PL (9 h): 142.4 mg/dL
- RALB (9 h): 3.8 g/dL
- TBIL (9 h): 0.2 mg/dL
- TC (9 h): 88.4 mg/dL
- TP (9 h): 5.6 g/dL
- gamma-GTP (9 h): 1.4 IU/L
- TERMINAL_BW (24 h): 191.7 g
- Bas (24 h): 0%
- Eos (24 h): 1%
- Fbg (24 h): 218 mg/dL
- Hb (24 h): 13.5 g/dL
- Ht (24 h): 40.5%
- Lym (24 h): 77%
- MCH (24 h): 22.1 pg
- MCHC (24 h): 33.4%
- MCV (24 h): 66.3 fL
- Mono (24 h): 7%
- Neu (24 h): 15%
- Plat (24 h): 105.4 x10_4/uL
- RBC (24 h): 610.4 x10_4/ul
- Ret (24 h): 9.2%
- WBC (24 h): 102.8 x10_2/uL
- KIDNEY_L (24 h): 0.9 g
- KIDNEY_R (24 h): 0.9 g
- KIDNEY_TOTAL (24 h): 1.7 g
- LIVER (24 h): 8 g
- ALP (24 h): 953.6 IU/L
- ALT (24 h): 40.4 IU/L
- AST (24 h): 74.6 IU/L
- BUN (24 h): 17.2 mg/dL
- CRE (24 h): 0.5 mg/dL
- Ca (24 h): 11.2 mg/dL
- DBIL (24 h): 0.058 mg/dL
- GLC (24 h): 191.6 mg/dL
- IP (24 h): 9.2 mg/dL
- K (24 h): 4.7 meq/L
- Na (24 h): 139.4 meq/L
- PL (24 h): 161.4 mg/dL
- RALB (24 h): 3.8 g/dL
- TBIL (24 h): 0.3 mg/dL
- TC (24 h): 100 mg/dL
- TP (24 h): 5.9 g/dL
